In US20200339953A1, “HEMATOPOIETIC STEM AND PROGENITOR CELL THERAPY” (priority 2010, published 2020):

Tests used:
Assay type in all cases: cell-based, human
CD34^+ cells = assay: Competitive cAMP assay (LANCE cAMP detection kit)
Protocol: The cAMP assay was performed on CD34^+ cells using the LANCE® cAMP detection kit (Perkin Elmer Inc., Waltham, Mass.) according to the manufacturer's instructions. Briefly, 3,000 CD34^+ cells (Stem Cell Technologies, Vancouver, Canada) were aliquoted in each well of a 384-well opaque white plate in the recommended stimulation buffer. Assays were performed in triplicate for all conditions.
CD34^+ cells were placed on ice prior to being stimulated with DMSO or 16,16-dimethyl PGE2 at 4° C. For assays conducted at other temperatures, e.g., 25° C. or 37° C., DMSO or 16,16-dimethyl PGE2 was added to CD34^+ cells at room temperature and then the plates were incubated with DMSO or 16,16-dmPGE2 at the experimental temperature (25° C. or 37° C.).
CD34^+ cells were incubated for periods of 5, 15, 30, 60 or 120 minutes. Following the incubation period, detection buffer was added to the stimulated cells and cells were incubated for an additional 1 hour at room temperature in detection buffer, regardless of stimulation temperature. The assay plates were analyzed using an EnVision® 2104 Multilabel Reader (Perkin Elmer) according to the manufacturer's instructions.
A competitive cAMP assay was performed using CD34^+ cells to determine the effects of time (incubation for 15, 30, 60, or 120 minutes), temperature (incubation at 4° C., 25° C., or 37° C.), and final 16,16-dimethyl PGE2 concentration (1 μM, 10 μM, 50 μM, or 100 μM) on cAMP production in the cells.

[1] = system: Whole cord blood cells or CD34^+ cells; assay: Colony Forming Unit-Cell assay (CFU-C)
Protocol: Colony Forming Unit-Cell assays (CFU-C) were performed using a methyl cellulose assay kit, MethoCult® GF H4034 (Stem Cell Technologies, Vancouver, CA). Whole cord blood cells or CD34^+ cells obtained from Stem Cell Technologies (Vancouver, Canada) were aliquoted equally in Eppendorf tubes and treated ex vivo at a range of 16,16-dimethyl PGE2 concentrations (10 μM to 100 μM) or DMSO control; temperatures (4° C., 22° C., or 37° C.) for 120 minutes in LMD/5% HSA media. After treatment, the cells were washed in LMD/5% HSA media and resuspended in Iscove's Media containing 2% Fetal Bovine Serum (FBS) (Stem Cell Technologies). Cells were then loaded into a MethoCult® assay tube, mixed, and plated in 35 mm tissue culture plates according to the manufacturer's instructions. Unless otherwise mentioned, the equivalent of 10,000 WCB cells and 250 CD34^+ cells were loaded into each plate.

[2] = system: Whole cord blood cells or CD34^+ cells; assay: Cell viability assay (7-AAD staining)
Protocol: Whole cord blood cells or CD34^+ cells obtained from Stem Cell Technologies (Vancouver, Canada) were aliquoted equally in Eppendorf tubes and treated ex vivo at a range of 16,16-dimethyl PGE2 concentrations (10 μM to 100 μM) or DMSO control; temperatures (4° C., 22° C., or 37° C.) for 60 or 120 minutes in LMD/5% HSA media. After treatment, an aliquot of the incubated cells were assayed using 7-Amino-Actinomycin D (7-AAD) staining as an indicator of cell death. One million whole cord blood were stained with 5 μL of 7AAD staining solution (BD Bioscience, San Jose, Calif.), or 200,000 CD34^+ cord blood cells were stained with 1 μL 7-AAD solution. Cells were analyzed on a Guava EasyCyte 8HT System (Millipore) and with the FlowJo software package (Tree Star Inc., Ashland, Oreg.). A separate aliquot of the same cells were also taken for assessment of proliferation potential using CFU-C assays (discussed below in Example 4).

[3] = CD34+ cells, 10 μM, 120 minutes, 37° C. vs vehicle or 4° C.
[4] = whole cord blood cells or CD34+ cells, high temperatures, relatively long incubation periods vs other conditions

## CCCCC(C)(C)[C@H](O)/C=C/[C@H]1[C@H](O)CC(=O)[C@@H]1C/C=C\CCCC(=O)O [16,16-dimethyl PGE2]
CD34^+ cells; 4° C., 1, 10, 50 and 100 μM, p>0.05
  cAMP production compared to DMSO controls: No statistically significant increase
CD34^+ cells; 37° C.
  time in which the cAMP response reached maximal levels: 15 min
CD34^+ cells; 37° C. and 25° C., 5 min up to 2 hours, 1, 10, 50 and 100 μM, p<0.001
  cAMP activity compared to DMSO control: statistically significant increase
CD34^+ cells; CD34+ cells
  threshold concentration above which the cAMP response was relatively dose-insensitive: 10 µM
CD34^+ cells; CD34+ cells, FIG. 3
  incubation time of maximal cAMP response: 30 to 60 min
[1]; CD34+ cells treated at 37° C. vs DMSO or 4° C.
  CFU-C colony formation (FIG. 19D): increase in CFU-C colony formation
[1]; [3]
  ability to form colony forming units (FIG. 11): does not decrease the ability of the cells to form colony forming units
[1]; [4]
  proliferative potential (CFU-C): higher proliferative potential
[2]; [3]
  cell viability (FIG. 10): does not decrease cell viability
[2]; [4]
  cell viability (7-AAD): did not decrease cell viability
